SMILES strings stand for the structures. Like-named read-outs stand apart in the source and are kept apart here.

As usually defined, the IC50 is the midpoint of a concentration-inhibition curve.

One assay has as its system A549. The experiment in a line: In vitro antiproliferative activity (MTT), A549. It is filed as cell-based. To be noted: Homo sapiens, tumor cell proliferation, 72 h, mean ± SE. As to the method: (§1) Human T-cell leukemia (CCRF-CEM and Jurkat) and human B-cell leukemia (SEM) cells were grown in RPMI-1640 medium (Gibco, Milano, Italy). Breast adenocarcinoma (MCF7), human cervix carcinoma (HeLa), and human colon adenocarcinoma (HT-29) cells were grown in DMEM medium (Gibco, Milano, Italy), all supplemented with 115 units/mL penicillin G (Gibco, Milano, Italy), 115 μg/mL streptomycin (Invitrogen, Milano, Italy), and 10% fetal bovine serum (Invitrogen, Milano, Italy). Stock solutions (10 mM) of the different compounds were obtained by dissolving them in dimethyl sulfoxide (DMSO). Individual wells of a 96-well tissue culture microtiter plate were inoculated with 100 μL of complete medium containing 8 × 10^3 cells. The plates were incubated at 37 °C in a humidified 5% CO2 incubator for 18 h prior to the experiments. After medium removal, 100 μL of fresh medium containing the test compound at different concentrations was added to each well in triplicate and incubated at 37 °C for 72 h. The percentage of DMSO in the medium never exceeded 0.25%. This was also the maximum DMSO concentration in all cell-based assays described below. […] Different concentrations of the test compounds were added, and viability was determined 72 h later by the MTT test. For cytotoxicity evaluations in resting PBL cultures, non-adherent cells were resuspended (5 × 10^5 cells/mL) and treated for 72 h with the test compounds, as described above.

The subject of the next assay is HeLa cells. The experiment in a line: Western blot analysis of cell cycle, spindle checkpoint and apoptosis proteins. Format: cell-based, human. As to the method: HeLa cells were incubated in the presence of 4o and, after different times, were collected, centrifuged, and washed two times with ice cold phosphate buffered saline (PBS). The pellet was then resuspended in lysis buffer. After the cells were lysed on ice for 30 min, lysates were centrifuged at 15000 × g at 4 °C for 10 min. The protein concentration in the supernatant was determined using the BCA protein assay reagents (Pierce, Italy). Equal amounts of protein (10 μg) were resolved using sodium dodecyl sulfate-polyacrylamide gel electrophoresis (SDS-PAGE) (Criterion Precast, BioRad, Italy) and transferred to a PVDF Hybond-P membrane (GE Healthcare). Membranes were blocked with a bovine serum albumin solution (5% in Tween PBS 1X), the membranes being gently rotated overnight at 4 °C. Membranes were then incubated with primary antibodies against Bcl-2, PARP, cdc25c, CDC20, ROCK1, MAD2, p-H2AX^Ser139, cyclin B, p-cdc2^Tyr15, […] (all from Cell Signaling), caspase-3 (Alexis), or β-actin (Sigma-Aldrich) for 2 h at room temperature. Membranes were next incubated with peroxidase labeled secondary antibodies for 60 min. All membranes were visualized using ECL Select (GE Healthcare), and images were acquired using an Uvitec-Alliance imaging system (Uvitec, Cambridge, UK). To ensure equal protein loading, each membrane was stripped and reprobed with anti-β-actin antibody.
On the technique in general: Immunoblotting shows a protein as a band on a membrane.

The test system of assay [1] is Jurkat. The experiment in a line: In vitro antiproliferative activity (MTT), Jurkat. To be noted: Homo sapiens, tumor cell proliferation, 72 h, mean ± SE. Format: cell-based. As to the method:
as §1

In assay [2] the test system is Jurkat. The experiment in a line: Annexin-V/PI apoptosis assay, Jurkat. Particulars: 24 h, lowest concentration used (50 nM). It is filed as cell-based, human. As to the method: To evaluate the induction of apoptosis by compound 4o in two cell lines (HeLa and Jurkat), we used an annexin-V/PI assay. Dual staining for annexin-V and with PI permits discrimination between live cells (annexin-V^−/PI^−), early apoptotic cells (annexin-V^+/PI^−), late apoptotic cells (annexin-V^+/PI^+) and necrotic cells (annexin-V^−/PI^+).
Cell death was determined by flow cytometry of cells double stained with annexin V/FITC and PI. The Coulter Cytomics FC500 (Beckman Coulter) was used to measure the surface exposure of phosphatidyl serine on apoptotic cells according to the manufacturer’s instructions (Annexin-V Fluos, Roche Diagnostics).

For another assay, the system named is Jurkat cells. The experiment in a line: Cell cycle distribution by flow cytometry (PI), Jurkat. It is filed as cell-based, human. To be noted: 24 h treatment. As to the method:
The effects of a 24 h treatment with different concentrations of 4o on cell cycle progression in Jurkat, and HeLa cells were determined by flow cytometry, following propidium iodide (PI) staining of the cells (Fig. 4, Panels A,B). […] In the HeLa cells, the G2/M block was accompanied by a significant reduction of both G1 and S phase cells. In order to determine whether 4o was able to block cells at the mitotic phase (M), cells were stained with an immunofluorescent antibody to p-histone H3, a well known mitotic marker, as well as PI, and analyzed by flow cytometry. As shown in Fig. 4 (Panel C), in which representative histograms are presented, Hela cells arrested in M phase by treatment with 4o are readily distinguished from G2 cells by the higher level of p-histone H3. In particular, treatment with 4o induced an increase in the percentage of mitotic cells from the 2% observed in untreated cells to about 30% with both 50 and 100 nM 4o at 24 h (Fig. 4, Panel D).
5 × 10^5 HeLa or Jurkat cells were treated with different concentrations of the test compounds for 24 h. After the incubation period, the cells were collected, centrifuged, and fixed with ice-cold ethanol (70%). […] Samples were analyzed on a Cytomic FC500 flow cytometer (Beckman Coulter). DNA histograms were analyzed using MultiCycle for Windows (Phoenix Flow Systems).
Background: Flow cytometry measures light scatter and fluorescence of single cells or particles in a stream.

The test system of assay [3] is PBL not stimulated with PHA. The experiment in a line: Cytotoxicity in resting peripheral blood lymphocytes. Particulars: Homo sapiens, Lymphocyte, PBL from healthy donors, 72 h, MTT, read-out: IC50 PBLresting. Format: cell-based. As to the method: (§2) This value was almost 600 times higher than that observed against the Jurkat lymphoblastic cell line.
as §1, with “For cytotoxicity evaluations in resting PBL cultures, non-adherent cells were resuspended (5 × 10^5 cells/mL) and treated for 72 h with the test compounds, as described above.” left out

For assay [4], the system named is panel of seven human tumor cell lines. The experiment in a line: Antiproliferative activity across the panel of seven human tumor cell lines. It is filed as cell-based. As to the method: as §1
A further assay relates to PBL stimulated with PHA. The experiment in a line: Cytotoxicity in PHA-stimulated peripheral blood lymphocytes. It is filed as cell-based, human. Particulars: 72 h, PBL from healthy donors, MTT, read-out: IC50 PBLPHA. As to the method:
as §2
as §1, with “For cytotoxicity evaluations in resting PBL cultures, non-adherent cells were resuspended (5 × 10^5 cells/mL) and treated for 72 h with the test compounds, as described above.” left out

[5] abbreviates: HeLa, 24 h, all concentrations examined.

As to `CCOc1ccc(-c2nccn2-c2cc(OC)c(OC)c(OC)c2)cc1Cl` [Compound 4o, 2-(3′-Chloro-4′-ethoxyphenyl)-1-(3′,4′,5′-trimethoxyphenyl)-1H-imidazole], the IC50 in the assay with A549 was 0.57 ± 0.17 nM; in the assay with Jurkat [1], 0.9 ± 0.2 nM; in assay [3], greater than 10000 nM; in assay [4] (average over the seven cell lines, read-out: average IC50 values), 1.3 nM; in assay [4] (range over seven cancer cell lines, read-out: IC50 values in the seven cell lines (range)) it was 0.4 to 3.8 nM; in the assay with PBL stimulated with PHA (Homo sapiens, Lymphocyte), roughly 500 nM. Also, the IC50 in the assay with PBL stimulated with PHA was found to be 520 ± 40 nM. The “phosphorylation of γH2A.X (Ser139)” value in the assay on HeLa cells (HeLa) is recorded as “remarkable increase”. The “cyclin B1 expression” value in the assay on HeLa cells (HeLa, 50 nM, 24 h) is given as “marked increase”. Also, the MAD2 expression result with HeLa cells (HeLa, 24 and 48 h) is “substantially decreased”. Moreover, the “expression of phosphorylated cdc2” value in the assay with HeLa cells (HeLa, 24 and 48 h) is given as “strongly decreased”. Further, in the assay on HeLa cells (HeLa, 50, 100 and 250 nM, 24 and 48 h), the PARP entry is listed as “cleavage of PARP”. The caspase-3 result in the assay on HeLa cells (HeLa, 50, 100 and 250 nM, in particular after 48 h) is “activation of the effector caspase-3”. Also, in the assay with HeLa cells (HeLa, 24 h), the “level of cdc20” value is recorded as “remained unaffected”. For the same molecule, the “total cdc25c expression” value with HeLa cells (HeLa, 24 h) is “strongly reduced”. For the same molecule, the Bcl-2 expression entry in the assay on HeLa cells (setting [5]) is recorded as “dramatic decrease”. In the assay on HeLa cells (setting [5]), the Mcl-1 expression entry is recorded as “dramatic decrease”. In the assay on HeLa cells (HeLa, 24 h, effect disappeared at 48 h), the “phosphorylation of PLK1” value was “marked increase”. Also, the ROCK1 cleavage entry in the assay on HeLa cells (HeLa, 48 h) is “cleaved bands of ROCK1 appeared”. In addition, the annexin-V positive cells entry with Jurkat [2] was “significant accumulation of annexin-V positive cells”. Besides, the “lowest concentration with a rise in G2/M cells” value in the assay with Jurkat cells was 25 nM.

(Values after article PMC4877593, “Design and Synthesis of Potent in Vitro and in Vivo Anticancer Agents Based on 1-(3′,4′,5′-Trimethoxyphenyl)-2-Aryl-1H-Imidazole” (Scientific Reports, 2016).)
